Consider nine compounds from paper PMC9271247, “Evaluation of antiplasmodial activity in silico and in vitro of N-acylhydrazone derivatives” (BMC Chemistry, 2022).

Data set [1] concerns Plasmodium falciparum chloroquine resistant (W2) strain. Nature of the data set: In vitro antiplasmodial activity, blood smear (traditional) test, 48 h. Type of data set: cell-based. To be noted: W2, 48 h, read-out: IC50 ± SD P. falciparum. The protocol: The parasites were synchronized using sorbitol treatment and the parasitemia was microscopically evaluated with Giemsa-stained blood smears.
After 48 h, blood smears were prepared, coded, stained with giemsa and examined at 1000×magnification. The parasitemia of controls (considered as 100% growth) was compared to test cultures, and then the percentage of infected red blood cells was calculated.
The results were expressed as mean of half-maximal inhibitory dose (IC50), with different drug concentrations performed in triplicate and compared with drug-free controls. Curve fitting was performed using OriginPro® 8.0 software (Origin Lab Corporation, Northampton, MA, USA).

A further data set is described as follows: in vitro. To be noted: human, LC50 ± SD WI-26VA4. Here is the method:
(§1) Negative controls were composed of cells without treatment. Five serial dilutions (1:10) were made from a stock solution (10 mg mL − 1) using RPMI supplemented with 1% FBS. Cell viability was evaluated after 48 h of incubation by discarding the medium and adding 100 μL of 5% MTT, followed by 3 h of incubation. Then, the supernatant was discarded, and insoluble formazan product was dissolved in DMSO. The optical density (OD) of each well was measured using a microplate spectrophotometer at 550 nm. The OD of untreated control cells was defined as 100% cell viability and all assays were performed in triplicate. The selectivity index (SI) of samples was calculated by following Eq. 1 [29].1 SI=LC50of WI-26VA4 cell line/IC50ofP.falciparumstrain W2

Data set [2] concerns human lung fibroblast cell line WI-26VA4 (ATCC CCL-95.1). Nature of the data set: in vitro. As to conditions: 48 h. The protocol: as §1

Broadly, the IC50 is the concentration at which inhibition is half-maximal. With `O=C(N/N=C/c1cccc(O)c1)c1ccccc1` [AH1, N'-[(1E)-(3-hydroxyphenyl)methylene]benzohydrazide], the IC50 in data set [1] was determined as 0.19 ± 0.1 µM. Besides, the CC50 at 48 h in the data set “in vitro” was above 100 µM. For the same compound, the CC50 in data set [2] is above 100 µM.

Consider `O=C(N/N=C/c1cccc(O)c1)c1ccc([N+](=O)[O-])cc1` [AH3, N'-[(1E)-(3-hydroxyphenyl)methylene]-4-nitrobenzohydrazide], for which the IC50 in data set [1] is above 1 µM. In “in vitro”, the CC50 at 48 h was 100 ± 0.19 µM.

As to `CO[C@H]1O[C@@H]2O[C@@]3(C)CC[C@H]4[C@H](C)CC[C@@H]([C@H]1C)[C@@]24OO3` [Artemether, reference compound], in data set [1], the IC50 was below 1.01 µM. In the data set “in vitro”, this compound came in with a CC50 at 48 h of 100 ± 0.18 µM.

As to `O=C(O)CCC(=O)Nc1ccc(C(=O)N/N=C/c2cccc(O)c2)cc1` [AH6, 4-[(4-{[(2E)-2-(3-hydroxybenzylidene)hydrazino]carbonyl}phenyl)amino]-4-oxobutanoic acid], the half-inhibitory concentration (IC50) in data set [1] was above 1 µM. For the same compound, in “in vitro”, the CC50 at 48 h turned out to be 100 ± 0.17 µM.

As to `O=C(N/N=C/c1cccc(O)c1)c1ccc(Cl)cc1` [AH2, 4-chloro-N'-[(1E)-(3-hydroxyphenyl)methylene]benzohydrazide], the IC50 in data set [1] stood at 2.15 ± 0.09 µM. The compound further came in with a CC50 at 48 h in “in vitro” above 100 µM. For the same compound, in data set [2], the CC50 was above 100 µM.

As to `O=C(N/N=C/c1cccc(O)c1)c1ccc(O)cc1` [AH4, 4-hydroxy-N'-[(1E)-(3-hydroxyphenyl)methylene]benzohydrazide], the half-maximal inhibitory concentration (IC50) in data set [1] turned out to be 0.09 ± 0.05 µM. This compound returned a CC50 at 48 h in “in vitro” above 100 µM. The same compound gave a CC50 in data set [2] above 100 µM.

As to `O=C(N/N=C/c1cccc(O)c1)c1ccc(NC(=O)c2ccccc2)cc1` [AH5, N-(4-{[(2E)-2-(3-hydroxybenzylidene)hydrazino]carbonyl}phenyl) benzamide], in data set [1], the IC50 was determined as 0.07 ± 0.07 µM. The compound further gave a CC50 at 48 h in the data set “in vitro” above 100 µM. In data set [2], this compound gave a CC50 above 100 µM.

For the compound `CCN(CC)CCCC(C)Nc1ccnc2cc(Cl)ccc12` (stereo not drawn) [Chloroquine, reference compound], the IC50 in data set [1] came to 0.057 ± 0.14 µM.

Take `O=C(N/N=C/c1cccc(O)c1)c1ccncc1` [AH7, N'-[(1E)-(3-hydroxyphenyl)methylene]isonicotinohydrazide]: in data set [1], the IC50 was above 1 µM. The same compound registered a CC50 at 48 h in “in vitro” of 100 ± 0.13 µM.
